Read-outs that look alike come from different tables or passages of the source.
What was measured:
PI3Kδ = PI3Kδ (Homo sapiens, UniProt O00329); experiment: PI3Kδ inhibitory activity (Ki value); assay type: biochemical
Description: According to Example 2 above, after 80 μg/mL PI-3 kinase γ of the enzyme solution (80 μg/mL PI-3 kinase γ, 10 mmol/L MgCl2, 5 mmol/L DTT) was changed to 158 μg/mL PI-3 kinase δ, a method similar to the method for measuring PI3Kγ inhibitory activity was used to calculate an inhibition ratio, which was defined as the PI3Kδ inhibitory activity.
According to Example 4 above, a Km value for PI3Kδ was determined to calculate a Ki value.

PI3Kγ [1] = target: T1, PI3Kγ (Homo sapiens, UniProt P48736); experiment: PI3Kγ inhibitory activity (Ki value); assay type: biochemical
Description: The PI3Kγ inhibitory activity (Ki value) of a compound was evaluated according to the following procedure:
5 μL of a compound solution containing 10% DMSO and […] of a compound was changed to 5 μL of a compound solution containing 10% DMSO and either 200, 64, 20, 6.4, 2, 0.64, or 0.20 μmol/L of the compound (optionally, this is diluted to a lower concentration). Using a method similar to the method for measuring PI3Kγ inhibitory activity, inhibition ratios of PI3Kγ were measured in the presence of the compound at 50, 16, 5, 1.6, 0.5, 0.16, and 0.05 μmol/L (optionally, a lower concentration). Then an IC50 value was calculated by a logistic approximation method or the linear regression method using two concentrations that cross 50% inhibition. Separately, the ATP concentration in the reaction solution (40 μmol/L ATP, 10 mmol/L MgCl2, 5 mmol/L DTT) at the time of the start of a reaction in the absence of the compound was changed to 80, 40, 20, 10, 5, 2.5, 1.25, or 0.625 μmol/L. Then, HTRF ratios were measured by a similar method. The value obtained by subtracting the HTRF ratio at each ATP concentration from the HTRF ratio in the absence of PI-3 kinase y was defined as the value obtained by multiplying reaction rate (v) at each ATP concentration with a constant. The Michaelis-Menten constant Km was then calculated by the Lineweaver-Burk plot method. The Ki value of a compound was calculated by the following formula wherein “μM” denotes “μmol/L.”
Ki value ═IC50 value/(1+test ATP concentration (μM)/Km (μM))

PI3Kβ = PI3Kβ (Homo sapiens, UniProt P42338); experiment: PI3Kβ inhibitory activity (Ki value); assay type: biochemical
Description: According to Example 2 above, after 80 μg/mL PI-3 kinase γ of the enzyme solution (80 μg/mL PI-3 kinase γ, 10 mmol/L MgCl2, 5 mmol/L DTT) was changed to 60 μg/mL PI-3 kinase β, a method similar to the method for measuring PI3Kγ inhibitory activity was used to calculate an inhibition ratio, which was defined as the PI3Kβ inhibitory activity.
According to Example 4 above, a Km value for PI3Kβ was determined to calculate a Ki value.

PI3Kα = PI3Kα (Homo sapiens, UniProt P42336); experiment: PI3Kα inhibitory activity (Ki value); assay type: biochemical
Description: According to Example 2 above, after 80 μg/mL PI-3 kinase γ of the enzyme solution (80 μg/mL PI-3 kinase γ, 10 mmol/L MgCl2, 5 mmol/L DTT) was changed to 0.8 μg/mL PI-3 kinase α, an inhibition ratio was calculated by a method similar to the method for measuring PI3Kγ inhibitory activity, and then defined as the PI3Kα inhibitory activity.
The α inhibitory activity (Ki value) of a compound was evaluated according to the following procedure.
According to Example 4 above, a Km value for PI3Kα was determined to calculate a Ki value.

[2] = test system: CYP1A2, CYP2C9, CYP2C19, CYP2D6 and CYP3A4 (one value for the five species); experiment: CYP inhibition test, five CYP species together (5CYPs_IC50; pooled human liver microsome); assay type: in vitro ADME; details: human, microsomes
Source text: O-de-ethylation of 7-ethoxyresorufin (CYP1A2), methyl-hydroxylation of tolbutamide (CYP2C9), 4′-hydroxylation of mephenyloin (CYP2C19), O-demethylation of dextromethorphan (CYP2D6), and hydroxylation of terfenadine (CYP3A4), which are typical substrate for metabolic reactions of human main CYP5 molecular species (CYP1A2, 2C9, 2C19, 2D6, and 3A4), were adopted as indexes.
The reaction conditions are as follows: substrate: 0.5 μmol/L of ethoxyresorufin (CYP1A2), 100 μmol/L of tolbutamide (CYP2C9), 50 μmol/L of S-mephenyloin (CYP2C19), 5 μmol/L of dextromethorphan (CYP2D6), and 1 μmol/L of terfenadine (CYP3A4); reaction time; 15 minutes; reaction temperature: 37° C.; enzyme: pooled human liver microsome 0.2 mg protein/mL; test drug concentration: 1, 5, 10, and 20 μmol/L (4 points).
In a 96-well plate, as a reaction solution, five kinds of substrates, a human liver microsome, and a test drug were added to 50 mmol/L Hepes buffer solution in the aforementioned ratio. A coenzyme NADPH was added to start a metabolic reaction, which is an index. After reacting at 37° C. for 15 minutes, a solution of methanol/acetonitrile (1/1 (v/v)) was added to quench the reaction. After centrifugation at 3000 rpm for 15 minutes, resorufin (CYP1A2 metabolite) in the supernatant was quantitated with a fluorescence multilabel counter, and hydroxylated tolbutamide (CYP2C9 metabolite), 4′-hydroxylated mephenyloin (CYP2C19 metabolite), […], terfenadine in alcohol form (CYP3A4 metabolite) were quantitated with LC/MS/MS.
The case wherein only DMSO (a solvent which dissolved a drug) was added to a reaction system was defined as a control (100%). When a test drug solution was added, the remaining activity (%) at each concentration was calculated, and then IC50 was calculated with a concentration and an inhibition ratio by an inverse estimation using a logistic model.

AKT phosphorylation = AKT phosphorylation inhibitory activity in MCP-1 stimulated THP-1 cells (sandwich ELISA); assay type: cell-based, Human; details: Homo sapiens, compound at 1 μmol/L, MCP-1 stimulation, read-out: AKT phosphorylation inhibition ratio
Description: (1) The AKT phosphorylation inhibitory activity of a compound was evaluated according to the following procedure. (2) Human monocyte-like cell line THP-1 was washed with RPMI-1640 media, incubated in the presence of 5% CO2 at 37° C. for 3 hours, washed with Hank's balanced salt solution (HBSS), adjusted to a cell concentration of 6.7×10^6/mL, and then used in an experiment. (3) 30 μL of the cell suspension and 60 μL of each compound solution containing 0.2% DMSO/HBSS were mixed and then preincubated at 37° C. for 5 minutes. 30 μL of HBSS containing 1.2 μg/mL of MCP-1 was added thereto and then incubated for 60 seconds at 37° C. (4) 30 μL of a cell lysate (the final concentrations: 20 mmol/L Tris-HCl (pH 7.5), 150 mmol/L NaCl, 1 mmol/L EDTA, 1 mmol/L EDTA, 1% Triton X-100, 2.5 mmol/L sodium pyrophosphate, 1 mmol/L β-glycerophosphate, 1 mmol/L Na3VO4, 1 μg/ml leupeptin, 50 nmol/L APMSF) was added thereto to lyse cells. (5) The amount of AKT phosphorylation in the cell solution was measured by sandwich ELISA method using anti-Phospho-Akt (Ser473) antibody and anti-AKT1 antibody. (6) Anti-Phospho-Akt (Ser473) antibodies or anti-AKT1 antibodies were immobilized onto the solid phase of a micro well plate. The prepared cell lysate was added to the micro well plate, incubated, and then washed with ELISA wash solution. (7) An anti-AKT1 antibody or anti-Phospho-Akt (Ser473) antibody, which forms a counterpart to an antibody immobilized on the solid phase, was added thereto, incubated, washed similarly, and then reacted with an HRP-labeled anti-mouse IgG antibody. (8) After incubating for 30 minutes and then washing similarly, 100 μL of TMB (3,3′,5,5″-tetramethylbenzidine) was added thereto, followed by reacting for 30 minutes. (9) 100 μL of stop solution was added to quench the color reaction, and then the absorbance at 450 nm was measured. (10) The amount of AKT phosphorylation in a sample in the absence of a compound was defined as 100% activity, and the amount of AKT phosphorylation in a sample in the absence of MCP-1 was defined as 0% activity to calculate an inhibition ratio of each compound. The measurement was performed for a 1 μmol/L solution of each compound.

PI3Kγ [3] = target: T1, PI3Kγ; experiment: PI3Kγ inhibitory activity (PI3-kinase HTRF assay, inhibition ratio); assay type: biochemical; details: 0.5 h, compound at 10 μmol/L; read-out: PI3Kg Inhibition Ratio % (10 μM)
In short: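 Compound at 10 μmol/L preincubated 10 min with PI3Kγ and PIP2 substrate, then reacted with ATP for 30 minutes at room temperature; the compound, substrate and ATP figures as printed (40 μmol/L each) are solution concentrations. HTRF 665/620 nm ratio read after 18 hours. Inhibition ratio calculated against no-compound (100%) and no-enzyme (0%) controls.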

[4] = Metabolic stability test (pooled human liver microsome); assay type: in vitro ADME; details: percentage of test compound remained after 30 minutes, pooled human liver microsome 0.5 mg protein/mL, 1 mmol/L NADPH, 37° C., compound 0.5 μM
In short: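 Pooled human liver microsomes (0.5 mg protein/mL) incubated with compound and 1 mmol/L NADPH at 37° C. in pH 7.4 Tris buffer for 0 or 30 min. Parent quantified by LC/MS/MS after methanol/acetonitrile quench; value is % remaining at 30 min versus 0 min.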

hERG channel (IKr) = target: T2, hERG channel (IKr) (Homo sapiens, UniProt Q12809); experiment: hERG test (whole-cell patch-clamp, IKr in HEK293 cells); assay type: cell-based; details: human, HEK293 cells expressing hERG channel, pH 7.4, inhibition of maximum tail current (IKr), compound 1 μM
T2 construct: expressed in transfected cells; host or cells: HEK293
In short: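 hERG-expressing HEK293 cells, automated whole-cell patch clamp: hold −80 mV, +50 mV for 2 s, then −50 mV for 2 s to record IKr tail current. Compound in extracellular solution (pH 7.4) for 10 min at room temperature; inhibition of maximum tail current calculated versus pre-application and compared with 0.1% DMSO vehicle.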

CYP3A4 = target: T3, CYP3A4 (Homo sapiens, UniProt P08684); experiment: CYP3A4 fluorescence MBI test; assay type: in vitro ADME; details: difference in IC50 with 0 or 30 minutes pre-reaction; CYP3A4 expressed in E. coli, substrate 7-BFC
T3 construct: host or cells: E. coli
In short: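 E. coli-expressed CYP3A4 debenzylating 5.6 μmol/L 7-BFC to fluorescent 7-HFC (Ex 420/Em 535 nm) in K-Pi pH 7.4 at 25° C, 15 min reaction. NADPH pre-incubation of 0 or 30 min, with 10-fold dilution before reaction. IC50 from 0.625–20 μmol/L (6 points); (+) for an IC50 shift ≥5 μmol/L, (−) for ≤3 μmol/L.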

[5] = class symbols, read-out: PI3K δ Ki
[6] = class symbols, read-out: PI3K γ Ki
[7] = class symbols, read-out: PI3K β Ki
[8] = class symbols, read-out: PI3K α Ki

T1 sequence (P48736 whole entry, species assumed): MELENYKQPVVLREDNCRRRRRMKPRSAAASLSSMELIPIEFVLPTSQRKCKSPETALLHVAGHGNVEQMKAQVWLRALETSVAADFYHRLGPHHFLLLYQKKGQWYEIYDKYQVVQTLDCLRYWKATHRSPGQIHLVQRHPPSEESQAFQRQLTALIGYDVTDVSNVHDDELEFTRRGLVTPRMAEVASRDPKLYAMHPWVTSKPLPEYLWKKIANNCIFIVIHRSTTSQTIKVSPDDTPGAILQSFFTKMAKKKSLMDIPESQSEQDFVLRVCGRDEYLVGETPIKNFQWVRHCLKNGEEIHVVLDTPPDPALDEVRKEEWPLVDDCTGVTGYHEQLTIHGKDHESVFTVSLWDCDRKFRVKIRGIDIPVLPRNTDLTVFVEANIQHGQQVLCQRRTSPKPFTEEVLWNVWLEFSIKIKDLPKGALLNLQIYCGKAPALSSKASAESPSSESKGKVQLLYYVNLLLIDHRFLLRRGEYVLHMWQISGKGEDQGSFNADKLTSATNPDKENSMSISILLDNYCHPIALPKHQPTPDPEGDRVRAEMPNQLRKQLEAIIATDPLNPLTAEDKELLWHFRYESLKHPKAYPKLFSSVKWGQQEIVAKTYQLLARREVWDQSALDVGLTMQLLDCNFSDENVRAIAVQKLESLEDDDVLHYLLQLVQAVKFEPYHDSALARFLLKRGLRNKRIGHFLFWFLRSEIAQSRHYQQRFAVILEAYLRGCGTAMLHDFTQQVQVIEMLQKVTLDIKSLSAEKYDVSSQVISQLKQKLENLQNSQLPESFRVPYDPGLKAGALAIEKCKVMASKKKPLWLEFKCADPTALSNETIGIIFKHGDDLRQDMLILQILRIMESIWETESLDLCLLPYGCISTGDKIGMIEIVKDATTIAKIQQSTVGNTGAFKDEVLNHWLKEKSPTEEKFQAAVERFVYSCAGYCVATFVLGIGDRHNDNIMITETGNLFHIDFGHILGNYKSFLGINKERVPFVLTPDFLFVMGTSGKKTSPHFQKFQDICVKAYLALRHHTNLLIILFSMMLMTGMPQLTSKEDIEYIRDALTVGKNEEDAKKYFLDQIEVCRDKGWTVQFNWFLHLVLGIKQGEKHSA
PI3Kβ, sequence (P42338 whole entry, species assumed): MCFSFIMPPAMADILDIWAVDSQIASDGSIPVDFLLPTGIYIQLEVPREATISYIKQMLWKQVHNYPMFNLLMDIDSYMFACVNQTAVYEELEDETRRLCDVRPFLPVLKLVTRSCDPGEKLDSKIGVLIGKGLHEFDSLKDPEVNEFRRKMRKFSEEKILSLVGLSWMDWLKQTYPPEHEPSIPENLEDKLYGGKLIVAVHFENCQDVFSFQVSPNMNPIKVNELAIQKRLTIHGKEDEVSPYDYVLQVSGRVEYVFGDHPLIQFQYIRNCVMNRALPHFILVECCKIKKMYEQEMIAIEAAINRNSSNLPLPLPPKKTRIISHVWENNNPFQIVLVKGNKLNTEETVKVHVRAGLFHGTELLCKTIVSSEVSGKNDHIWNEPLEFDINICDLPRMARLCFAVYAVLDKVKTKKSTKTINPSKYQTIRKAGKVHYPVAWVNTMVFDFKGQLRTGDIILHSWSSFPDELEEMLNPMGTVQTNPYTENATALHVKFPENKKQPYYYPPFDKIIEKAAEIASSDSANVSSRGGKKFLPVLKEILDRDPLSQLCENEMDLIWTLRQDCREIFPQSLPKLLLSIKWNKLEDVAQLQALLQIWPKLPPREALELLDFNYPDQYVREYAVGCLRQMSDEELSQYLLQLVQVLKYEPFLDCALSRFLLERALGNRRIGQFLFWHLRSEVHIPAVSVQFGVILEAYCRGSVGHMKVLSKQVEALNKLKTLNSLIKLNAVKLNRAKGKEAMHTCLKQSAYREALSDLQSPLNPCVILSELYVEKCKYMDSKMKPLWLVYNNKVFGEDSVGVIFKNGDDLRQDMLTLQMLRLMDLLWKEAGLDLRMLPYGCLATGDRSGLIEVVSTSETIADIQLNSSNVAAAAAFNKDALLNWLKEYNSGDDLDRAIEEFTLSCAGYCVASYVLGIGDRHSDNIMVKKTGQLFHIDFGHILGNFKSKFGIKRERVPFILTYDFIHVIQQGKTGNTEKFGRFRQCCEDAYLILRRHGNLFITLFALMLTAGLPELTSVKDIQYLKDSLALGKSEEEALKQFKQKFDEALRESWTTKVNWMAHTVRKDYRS
PI3Kβ, sequence (P27986 whole entry partner, species assumed): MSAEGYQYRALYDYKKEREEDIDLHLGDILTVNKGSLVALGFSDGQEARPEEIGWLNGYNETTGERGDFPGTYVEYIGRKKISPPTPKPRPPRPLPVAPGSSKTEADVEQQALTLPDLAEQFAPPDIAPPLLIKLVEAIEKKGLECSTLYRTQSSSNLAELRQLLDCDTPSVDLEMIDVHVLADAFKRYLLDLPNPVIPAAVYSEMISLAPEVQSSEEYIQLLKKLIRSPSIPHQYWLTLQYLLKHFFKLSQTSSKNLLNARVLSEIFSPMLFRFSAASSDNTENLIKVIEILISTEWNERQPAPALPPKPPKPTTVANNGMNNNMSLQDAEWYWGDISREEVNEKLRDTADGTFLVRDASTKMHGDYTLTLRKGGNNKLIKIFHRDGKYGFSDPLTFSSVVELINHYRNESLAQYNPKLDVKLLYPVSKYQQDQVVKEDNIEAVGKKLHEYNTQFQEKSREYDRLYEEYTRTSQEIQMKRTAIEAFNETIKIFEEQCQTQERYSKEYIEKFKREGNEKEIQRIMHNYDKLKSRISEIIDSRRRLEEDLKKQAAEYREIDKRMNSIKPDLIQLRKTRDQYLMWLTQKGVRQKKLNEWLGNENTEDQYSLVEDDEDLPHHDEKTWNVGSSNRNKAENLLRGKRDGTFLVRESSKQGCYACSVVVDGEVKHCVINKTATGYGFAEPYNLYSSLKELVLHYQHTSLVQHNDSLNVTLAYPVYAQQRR
T2 sequence (Q12809 whole entry): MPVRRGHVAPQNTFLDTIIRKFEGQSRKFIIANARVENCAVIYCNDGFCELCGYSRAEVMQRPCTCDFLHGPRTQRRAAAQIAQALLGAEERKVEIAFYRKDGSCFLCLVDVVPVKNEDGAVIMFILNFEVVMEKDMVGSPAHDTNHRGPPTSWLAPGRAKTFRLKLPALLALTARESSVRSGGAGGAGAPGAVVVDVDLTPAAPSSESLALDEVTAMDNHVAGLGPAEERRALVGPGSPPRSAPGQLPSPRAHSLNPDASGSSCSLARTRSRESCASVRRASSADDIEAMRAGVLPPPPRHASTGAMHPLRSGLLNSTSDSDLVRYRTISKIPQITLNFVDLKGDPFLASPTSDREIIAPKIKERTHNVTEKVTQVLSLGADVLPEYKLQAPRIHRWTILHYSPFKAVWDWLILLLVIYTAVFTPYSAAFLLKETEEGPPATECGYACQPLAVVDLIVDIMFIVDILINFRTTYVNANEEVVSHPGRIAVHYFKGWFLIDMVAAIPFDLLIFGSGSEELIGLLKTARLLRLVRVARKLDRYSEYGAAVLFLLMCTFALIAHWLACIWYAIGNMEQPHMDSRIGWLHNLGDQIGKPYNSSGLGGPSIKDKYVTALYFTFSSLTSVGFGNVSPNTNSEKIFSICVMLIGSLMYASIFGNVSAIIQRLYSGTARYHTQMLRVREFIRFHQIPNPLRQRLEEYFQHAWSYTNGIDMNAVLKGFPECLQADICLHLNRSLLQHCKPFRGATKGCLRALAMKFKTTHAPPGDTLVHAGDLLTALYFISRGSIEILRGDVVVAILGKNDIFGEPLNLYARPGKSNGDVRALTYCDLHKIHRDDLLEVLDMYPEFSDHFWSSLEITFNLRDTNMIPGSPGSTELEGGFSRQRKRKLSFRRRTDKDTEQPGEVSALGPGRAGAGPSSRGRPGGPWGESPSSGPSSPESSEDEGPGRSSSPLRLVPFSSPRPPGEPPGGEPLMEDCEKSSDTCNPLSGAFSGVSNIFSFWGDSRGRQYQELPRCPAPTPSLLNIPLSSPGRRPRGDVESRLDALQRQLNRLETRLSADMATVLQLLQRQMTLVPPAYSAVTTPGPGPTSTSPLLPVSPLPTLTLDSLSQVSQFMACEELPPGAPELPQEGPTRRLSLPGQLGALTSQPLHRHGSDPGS
T3 sequence (P08684 whole entry): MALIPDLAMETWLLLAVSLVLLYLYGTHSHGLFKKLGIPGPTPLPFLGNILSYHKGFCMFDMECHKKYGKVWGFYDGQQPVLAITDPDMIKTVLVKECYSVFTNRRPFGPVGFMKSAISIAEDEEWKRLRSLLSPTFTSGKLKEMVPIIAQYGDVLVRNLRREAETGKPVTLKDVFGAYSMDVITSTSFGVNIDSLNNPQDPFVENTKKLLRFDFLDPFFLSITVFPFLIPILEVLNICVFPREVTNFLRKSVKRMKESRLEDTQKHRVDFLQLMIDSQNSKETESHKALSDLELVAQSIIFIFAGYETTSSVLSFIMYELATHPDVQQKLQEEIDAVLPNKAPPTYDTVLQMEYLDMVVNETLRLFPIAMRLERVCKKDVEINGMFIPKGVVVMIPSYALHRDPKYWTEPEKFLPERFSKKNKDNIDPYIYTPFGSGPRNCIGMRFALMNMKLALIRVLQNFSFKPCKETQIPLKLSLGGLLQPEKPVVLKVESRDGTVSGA

| SMILES | Ki (PI3Kδ; [5]) | Ki (PI3Kγ [1]; [6]) | Ki (PI3Kγ [1]; read-out: PI3Kγ Ki value) | Ki (PI3Kβ; [7]) | Ki (PI3Kα; [8]) | IC50 at 15 min [2] | inhibition at 10 µM (PI3Kγ [3]) | inhibition at 1 µM (AKT phosphorylation) | inhibition at 10 min, 1 µM (hERG channel (IKr)) | other results |
| --- | --- | --- | --- | --- | --- | --- | --- | --- | --- | --- |
| CC(C)CCOc1ccccc1NC(=O)Nc1cc2n(n1)CCN2c1ccc2c(c1)CCN(C)C2=O [Compound I-112] | ≤ 3 µM | ≤ 3 µM | 1.1 µM | > 3 µM | > 3 µM |  |  |  |  | Ki (PI3Kδ; read-out: PI3Kδ Ki value): 2.1 µM; Ki (PI3Kβ; read-out: PI3Kβ Ki value): > 11 µM; Ki (PI3Kα; read-out: PI3Kα Ki value): 7.5 µM |
| CC(C)CCc1ccccc1NC(=O)Nc1cc2n(n1)CCN2c1ccc2c(c1)CCN(C)C2=O [Compound I-113] | ≤ 3 µM | ≤ 3 µM | 2.3 µM | > 3 µM | > 3 µM |  |  |  |  |  |
| COc1cccc(-c2ccc3nc(NC(=O)Nc4ccccc4C(=O)NC(C)C)cn3n2)c1 [Compound I-123] | ≤ 0.3 µM | ≤ 0.03 µM | 0.025 µM | ≤ 3 µM | > 3 µM |  |  |  |  |  |

More lines, main results first:

| Ki (PI3Kδ; [5]) | Ki (PI3Kγ [1]; [6]) | Ki (PI3Kγ [1]; read-out: PI3Kγ Ki value) | Ki (PI3Kβ; [7]) | Ki (PI3Kα; [8]) | IC50 at 15 min [2] | inhibition at 10 µM (PI3Kγ [3]) | SMILES | inhibition at 1 µM (AKT phosphorylation) | inhibition at 10 min, 1 µM (hERG channel (IKr)) | other results |
| --- | --- | --- | --- | --- | --- | --- | --- | --- | --- | --- |
| ≤ 3 µM | ≤ 0.3 µM | 0.061 µM | ≤ 3 µM | > 3 µM |  |  | CC(C)CCOc1ccccc1NC(=O)Nc1cn2nc(-c3cccc(S(C)(=O)=O)c3)ccc2n1 [Compound I-126] |  |  |  |
|  |  |  |  |  | > 20 µM | ≥ 95% | COc1cc(N2CCc3nc(NC(=O)Nc4cn(C)nc4C(=O)NC(CO)CO)sc3C2)nc(OC)n1 [Compound I-170] | 80% |  | hLMS_ox(at 0.5 μM) % [4]: 91.6% |
|  |  |  |  |  | ≥ 10 µM | ≥ 95% | COc1nc(Cl)cc(N2CCc3nc(NC(=O)Nc4ccccc4C(=O)NC4CCOC4)sc3C2)n1 (stereo not drawn) [Compound I-175] | 88% | 1.6% |  |
|  |  |  |  |  | ≥ 10 µM |  | COc1nc(Cl)cc(N2CCc3nc(NC(=O)Nc4ccccc4C(=O)NC(C)C(F)(F)F)sc3C2)n1 (stereo not drawn) [Compound I-176] | 83% | 0.4% | MBI (CYP3A4): (−) (When 3 μmol/L or less, the compound is shown as (−)) |
|  |  |  |  |  | > 20 µM | 80% | CC(C)NC(=O)c1ccccc1NC(=O)Nc1nc2c(s1)CN(c1cncc(C#N)c1)CC2 [Compound I-188] | 84% | 3.9% |  |

Reference: patent US20120071475A1, “UREA DERIVATIVES HAVING PI3K-INHIBITING ACTIVITY” (SHIONOGI & CO., LTD., priority 2009, published 2012)
